Experiment in all cases: NCI anticancer screen, dose series, 48 h
The test system of assay [1] is ACHN renal.
In assay [2] the test system is CCRF-CEM leukemia.
Assay [3] concerns MCF7 breast.
Assay [4] has as its system OVCAR-8 ovarian.
For assay [5], the system named is RXF 393 renal.
The subject of assay [6] is SF-295 CNS.
In assay [7] the test system is SR leukemia.
Assay [8] concerns U251 CNS.
In assay [9] the test system is UACC-257 melanoma.
The subject of assay [10] is UACC-62 melanoma.

The structures appear in SMILES notation.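 Tested at 5 concentrations; 48 h exposure; 96-well plates; endpoints linearly interpolated, else capped at highest concentration. TGI: total growth inhibition.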

With `O=c1c2cc(-c3ccccc3)cnc2sn1-c1ccc([N+](=O)[O-])cc1`, the TGI in assay [1] is greater than 100 µM; in assay [2] it was greater than 100 µM; in assay [3], greater than 100 µM; in assay [4], greater than 100 µM; in assay [5] it was 82.1 µM; in assay [6] it was greater than 100 µM. Further, the TGI in assay [7] is greater than 100 µM; in assay [8], 95.1 µM; in assay [9] it was greater than 100 µM; in [10], greater than 100 µM.

Take `Cc1nnc(N)nc1/C=C\c1cccs1`: the TGI in [1] is 33.1 µM; in [2], 70.8 µM; in assay [3], greater than 100 µM; in [4], 44.5 µM; in assay [5], 40.8 µM; in assay [6], greater than 100 µM. For the same compound, the TGI in assay [7] is greater than 100 µM; in assay [8], greater than 100 µM; in assay [9] it was greater than 100 µM; in [10], 49.4 µM.

Take `N=C(N)n1[nH]c2c(c1=O)CCC2`: the TGI in assay [1], in assay [2], in assay [3], in assay [4], in assay [5] and in [6] was greater than 100 µM each time. The TGI in assay [7], in [8], in assay [9] and in assay [10] was greater than 100 µM each time.

For `Cc1cc2nc3n(c2cc1C)C(c1c(F)cccc1F)SC3` (stereo not drawn), the TGI was 40.6 µM in [1]; 64.3 µM in assay [2]; 34.2 µM in [3]; greater than 100 µM in assay [4]; 38.8 µM in [5]; 54.2 µM in [6]. Further, the TGI was 42.9 µM in [7], 32.3 µM in assay [8], greater than 100 µM in assay [9] and greater than 10 µM in [10].

In the case of `Cc1ccccc1NC(=S)N/N=C(/c1ccccc1)c1ccccn1`, the TGI in [1] turned out to be 5.4 µM; in [2], 11.6 µM; in assay [3], 15.3 µM; in assay [4], 11.8 µM; in [5] it was 12.3 µM; in [6], 8.7 µM. For the same compound, the TGI in assay [7] was greater than 21.2 µM; in [8], 12.1 µM; in assay [9], 0.357 µM; in assay [10], 17.1 µM.

Take `NCCCCNCCCN`: the TGI in assay [1], in assay [3], in [4], in assay [5], in assay [6] and in [7] was greater than 100 µM in each case. Further, the TGI in [8], in [9] and in assay [10] was greater than 100 µM in each case.

For `CN(N)C(=O)NCCCl`, the TGI in [1], in assay [2], in [3], in [5], in assay [6] and in assay [7] was greater than 100 µM each time. The TGI in assay [8], in assay [9] and in [10] was greater than 100 µM throughout.

Take `CCOC(OCC)C(CCc1ccccc1)c1c(N)nc(N)[nH]c1=O` (stereo not drawn): the TGI in [2], in assay [3], in assay [4], in assay [5], in assay [6] and in assay [7] was greater than 100 µM in each case. In addition, the TGI in assay [8], in assay [9] and in assay [10] was greater than 100 µM throughout.

`O=C1C[C@H](c2ccccc2)C2(C(=O)c3ccccc3C2=O)[C@@H](c2ccccc2)C1`: the TGI in [2] was greater than 100 µM; in assay [3], 83 µM; in assay [4], greater than 100 µM; in assay [5], greater than 100 µM; in assay [6], greater than 100 µM; in assay [7], greater than 100 µM. Further, the results for the TGI in assay [8] and in assay [10] were greater than 100 µM and 26.7 µM, respectively.

For `Cc1ccc([N+](=O)[O-])cc1S(=O)(=O)Nc1ccc(C2=NN(c3ccc([N+](=O)[O-])cc3[N+](=O)[O-])C(c3ccccc3O)C2)cc1` (stereo not drawn), the TGI in assay [1], in assay [2], in [3], in [4], in assay [5] and in [6] was greater than 100 µM throughout. Besides, the TGI in assay [7] is greater than 100 µM; in assay [8], greater than 100 µM; in assay [9], 82.7 µM.

For the compound `COC(=O)c1ccc(C)cc1C1CN=NC12Cc1cc(C)c(C)cc1C2=O` (stereo not drawn), the TGI in assay [1], in assay [2], in assay [3], in assay [4], in [5] and in [6] was greater than 100 µM in each case. Further, the TGI in assay [7], in assay [8] and in assay [9] was greater than 100 µM each time.

With `CC(C)(C)OC(=O)NC(CCCCNC(=O)OCc1ccccc1)C(=O)NC(CCCCNC(=O)OCc1ccccc1)C(=O)ON1C(=O)CCC1=O` (stereo not drawn), the TGI in assay [2], in assay [3], in [4], in assay [5], in assay [7] and in assay [8] was greater than 100 µM in each case. The TGI in [9] and in assay [10] was greater than 100 µM in each case.

Turning to `Oc1[nH]c2ccccc2c1N=NC(=S)N1CCCCCC1`, the TGI in assay [1] is 8.73 µM; in assay [3], 10.9 µM; in assay [4] it was 2.67 µM; in assay [5], 2.43 µM; in assay [6], 3.86 µM; in assay [7] it was 3.44 µM. In addition, the figures for the TGI in assay [8], in [9] and in assay [10] were 8.16 µM, 5.88 µM and 2.5 µM, respectively.

Turning to `CC[C@@]1(O)C(=O)OCc2c1cc1n(c2=O)Cc2c-1nc1ccccc1c2/C=N\NC(=O)C(N)CS` (stereo partly drawn), the TGI in [3] was greater than 100 µM; in [4], greater than 100 µM; in [5] it was 10.2 µM; in assay [6], greater than 33.9 µM; in assay [7], 1.04 µM; in [8], greater than 34.5 µM. Further, the values for the TGI in assay [9] and in assay [10] were greater than 100 µM and 0.761 µM, respectively.

The record behind these values is PubChem BioAssay (NCI).
